The subject of this data set is black willow (Salix nigra) roots. As to the kind of experiment: Foam application to exposed roots of greenhouse-grown black willow cuttings; roots evaluated 25 days after treatment. The note with it: for Dry Weight of Roots, Dead Roots / Dry Weight of Roots, Live Roots: 20 min contact, twenty-five days following treatment, average of 24 willow cuttings; for Effect on treated roots (visual inspection, living roots / root growth): foam application, twenty-five days following treatment (FIG. 3, FIG. 4). As for the experimental part:
Individual branch cuttings of black willow (Salix nigra) were collected and grown in containers according to methods described in Groninger and Bohanek 2000, J. of Plant Growth Regulation 19:453-456. The cuttings were rooted in 262 ml tubes containing a 1:1 mixture of peat moss and white washed play sand. Tubes were perforated with a 2 cm^2 hole in the bottom and four 1.4 cm^2 holes on the side, 2 cm from the bottom of the tube. Cuttings were grown under greenhouse conditions in racks containing 12 tubes each with one cutting per tube. To facilitate root growth outside of the tube, the racks were placed in aluminum pans and positioned so that the base of each tube was suspended in dilute nutrient solution. Water was added as needed and a 20-20-20-NPK fertilizer was provided at a rate of 0.04 g/cutting per week into the pan. Root growth was further facilitated by maintaining the root zone in darkness by covering gaps between the edge of the rack and the pan with aluminum foil. When cuttings had been growing for approximately four months, intermingling exposed roots from adjacent cuttings were separated from one another and fine roots were allowed to regrow. Treatment were initiated when shoots averaged 0.8 meters in height with healthy foliage. At the time of treatment, each cutting produced profuse growth of roots 0.3 cm in diameter or less.
Roots of the cuttings were exposed to paraquat, diquat, Rootex, a rooting hormone, and a control. Paraquat (Gramoxone Max®, Syngenta, containing 43.8% paraquat) was applied to roots cuttings at two rates, 2.0 and 4.0 ml/L. Diquat (Reward®, Syngenta, containing 37.3% diquat) was applied at 4.0 ml/L. Each treatment of the four treatments were applied in 1.0 L water solution with a 2% alkyl polyglycoside-based foaming agent, AU-340 (Adjuvants Unlimited, Tulsa, Okla.) using a foam generator to simulate a standard application of chemicals in controlling tree roots in sewer lines. Roots were placed in contact with foam solution for 20 minutes. […] Upon removal of foam solution, cuttings and their exposed roots were returned to pretreatment nutrient conditions with residual foam permitted to maintain contact with exposed roots.
Evaluation of roots was conducted twenty-five days following treatment. Roots were visually inspected, harvested, separated into living and dead groups, dried and weighed for dry mass determination.

SMILES strings stand for the structures. “Also recorded” adds a separate entry of the source.

As to `c1cc[n+]2c(c1)-c1cccc[n+]1CC2` [Diquat], the “Effect on treated roots (visual inspection, living roots / root growth)” value is reported as “No living roots”. Moreover, where the note is “4.0 ml/L of stock in foam”, the “Dry Weight of Roots, Dead Roots” value was 0.9 g/willow cutting and the “Dry Weight of Roots, Live Roots” value is 0 g/willow cutting.

As for `C[n+]1ccc(-c2cc[n+](C)cc2)cc1` [Paraquat, 1,1′-dimethyl-4,4′-bipyridium ion], the “Effect on treated roots (visual inspection, living roots / root growth)” value was “destruction of the test roots; also recorded: No living roots”. Further, under “2.0 ml/L of stock in foam”, the “Dry Weight of Roots, Dead Roots” value came to 0.7 g/willow cutting and the “Dry Weight of Roots, Live Roots” value worked out at 0 g/willow cutting. Moreover, for the setting “4.0 ml/L of stock in foam”, the “Dry Weight of Roots, Dead Roots” value turned out to be 2.2 g/willow cutting and the “Dry Weight of Roots, Live Roots” value is 0 g/willow cutting. In addition, the “Damage to the upper portion of the trees” value (green house testing, applied as a dense foam to tree roots) is recorded as “without causing damage”.

The values above are taken from US20040121912A1, “Method for controlling root growth using paraquat” (priority 2002, published 2004).
